Tests used:
Format in all cases: physicochemical
[1] = Lightfastness test of thin films; details: thin film on glass plate, UV fluorescent lamps 15 W/m^2, 45° C., 10 hours
Description: Thin films of Complex Compounds (2) to (5), (7), (9) to (11), (13) to (21), (24), (26), (28), (30), (31), and (33) were respectively obtained similarly to the film-forming test except that a glass plate (manufactured by Taiyu Kizai Co., Ltd.; 2 cm×2 cm; thickness: 2 mm) was used as the substrates instead of the plate made of polycarbonate resin. Using a dewpanel light control weather meter DPWL-5R, manufactured by Suga Test Instruments Co., Ltd., which was equipped with ultraviolet fluorescent lamps (SUGA-FS40, manufactured by Suga Test Instruments Co., Ltd., having a peak wavelength of 313 nm and an illuminance distribution of 282 nm to 373 nm), light was irradiated on the thin films with an amount of light of 15 W/m^2 at 45° C. for 10 hours. Ultraviolet-visible absorption spectra of the thin film before and after the lightfastness test were measured using a spectrophotometer.
Here, the absorption maximum wavelength after lightfastness test denotes an absorption maximum wavelength in the absorption spectrum after the lightfastness test.

[2] = Moisture- and heat-resistances test of thin films; details: thin film, 80° C., relative humidity 80%, 100 hours
Procedure: Similarly to the film-forming test, thin films of Complex Compounds (2) to (5), (7), (9) to (11), (13) to (21), (24), (26), (28), (30), (31), and (33) were respectively obtained. Using a constant temperature and humidity chamber, KHWII-40HP, manufactured by Satake Chemical Equipment Mfg Ltd., the thin films were exposed in the atmosphere having a temperature of 80° C. and a relative humidity of 80% for 100 hours. Ultraviolet-visible absorption spectra of the thin films before and after the moisture- and heat-resistances test were measured using a spectrophotometer. […] Here, the absorption maximum wavelength after the moisture- and heat-resistances test denotes the absorption maximum wavelength in an absorption spectrum after the moisture- and heat-resistances test.

[3] = Test of storage stability in solution; details: 13 mg in 1 mL TFP, brown bottle, 25° C., 3 days; 1250-fold diluted for measurement
Procedure: Each of 13 mg of Complex Compounds (2) to (5), (7), (9) to (11), (13) to (21), (24), (26), (28), (30), (31), and (33) was dissolved in 1 mL of TFP, which was filtered with a filter made of TEFLON (registered trademark) (manufactured by Whatman, having a pore diameter of 0.20 μm), and solutions of Complex Compounds (2) to (5), (7), (9) to (11), (13) to (21), (24), (26), (28), (30), (31), and (33) were respectively obtained. Each of the obtained solutions was transferred to a brown bottle with a lid and stored at 25° C. for 3 days. Before and after the storage stability test, using a spectrophotometer, 1250-fold diluted solutions of Complex Compounds (2) to (5), (7), (9) to (11), (13) to (21), (24), (26), (28), (30), (31), and (33), respectively, were measured for their ultraviolet-visible absorption spectra. […] Here, the absorption maximum wavelength after the storage stability test is the absorption maximum wavelength in the absorption spectrum after the storage stability test.

[4] = Water resistance test of thin films
Procedure: Similarly to the film-forming test, thin films of Complex Compounds (2), (3), (13), (19), and (20) were respectively obtained. Ultraviolet-visible absorption spectra of the thin films were measured using a spectrophotometer before and after the water resistance test in which the thin films were immersed in water at 75° C. for 30 minutes. […] Here, the absorption maximum wavelength after the water resistance test denotes the absorption maximum wavelength in the absorption spectrum after the water resistance test. […] Here, the water resistance test is a test under severe conditions, and a thin film having the ratio (I^d/I^d0) of 0.5 or greater has favorable water resistance.

[5] = thin film immersed in water at 75° C. for 30 minutes

## Cc1c(/C=N/[N-]c2nnnn2-c2ccccc2)c([O-])n(CC(C)C)c(=O)c1C#N.Cc1c(/C=N/[N-]c2nnnn2-c2ccccc2)c([O-])n(CC(C)C)c(=O)c1C#N.Cc1c(/C=N/[N-]c2nnnn2-c2ccccc2)c([O-])n(CC(C)C)c(=O)c1C#N.Cc1c(/C=N/[N-]c2nnnn2-c2ccccc2)c([O-])n(CC(C)C)c(=O)c1C#N.Fc1ccc(-[n+]2ccc(-c3cc[n+](-c4ccc(F)cc4)cc3)cc2)cc1.[Co+3].[Co+3] [Complex Compound (20)]
[1]
  I^a/I^a0 (absorbance ratio at absorption maximum after/before lightfastness test): 0.86
[2]
  I^b/I^b0 (absorbance ratio at absorption maximum after/before moisture- and heat-resistances test): 1.00
  Δλmax(b) (change in absorption maximum wavelength): 0.5 nm
[3]
  I^c/I^c0 (absorbance ratio at absorption maximum after/before storage stability test): 1.00
  Δλmax(c) (change in absorption maximum wavelength): 0.5 nm
[4]; [5]
  I^d/I^d0 (absorbance ratio at absorption maximum after/before water resistance test): 0.59
  Δλmax (d) (change in absorption maximum wavelength): 0.5 nm
[4]; thin film in water at 75° C. for 30 minutes
  Water resistance of thin film (in words): superior water resistance
